Measured values: patent US12077503B2, “Substituted cyclic amides and their use as herbicides” (FMC CORPORATION, priority 2015, dated 2024)

Experiments:
Format in all cases: in vivo
[1] = test system: ryegrass, Italian (Italian ryegrass, Lolium multiflorum); assay: Test A preemergence; conditions: Lolium multiflorum, pre-emergence, 240 h, preemergence, read-out: Ryegrass, Italian plant response rating
Summary of the method: (§1)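 In a loam soil and sand blend, planted seeds got a preemergence directed soil spray, and young plants at the one- to two-leaf stage, 2–10 cm high, got a postemergence application; ~10 d greenhouse hold; injury rated visually, 0 = none, 100 = complete control.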

Kochia (Kochia scoparia) [2] = assay: Test A preemergence; conditions: Bassia scoparia, pre-emergence, 240 h, preemergence, read-out: Kochia plant response rating
Summary of the method: as §1

[3] = test system: pigweed (Amaranthus retroflexus); assay: Test A preemergence; conditions: Amaranthus retroflexus, pre-emergence, 240 h, preemergence, read-out: Pigweed plant response rating
[4] = test system: barnyardgrass (Echinochloa crus-galli); assay: Test A preemergence; conditions: Echinochloa crus-galli, pre-emergence, 240 h, preemergence, read-out: Barnyardgrass plant response rating
Summary of the method: as §1

[5] = test system: ragweed (common ragweed, Ambrosia elatior); assay: Test A preemergence; conditions: Ambrosia artemisiifolia, pre-emergence, 240 h, preemergence, read-out: Ragweed plant response rating
Summary of the method: as §1

[6] = test system: giant foxtail (Setaria faberii); assay: Test A preemergence; conditions: Setaria faberi, pre-emergence, 240 h, preemergence, read-out: Foxtail, Giant plant response rating
Summary of the method: as §1

[7] = test system: ryegrass, Italian (Italian ryegrass, Lolium multiflorum); assay: Test A postemergence; conditions: Lolium multiflorum, post-emergence, 240 h, postemergence, read-out: Ryegrass, Italian plant response rating
Summary of the method: as §1

[8] = test system: blackgrass (Alopecurus myosuroides); assay: Test A postemergence; conditions: Alopecurus myosuroides, post-emergence, 240 h, postemergence, read-out: Blackgrass plant response rating
Summary of the method: as §1

Kochia (Kochia scoparia) [9] = assay: Test A postemergence; conditions: Bassia scoparia, post-emergence, 240 h, postemergence, read-out: Kochia plant response rating
Summary of the method: as §1

[10] = test system: wheat (Triticum aestivum); assay: Test A postemergence; conditions: Triticum aestivum, post-emergence, 240 h, postemergence, read-out: Wheat plant response rating
Summary of the method: as §1

[11] = test system: Galium (catchweed bedstraw, Galium aparine); assay: Test A postemergence; conditions: Galium, post-emergence, 240 h, postemergence, read-out: Galium plant response rating
Summary of the method: as §1

[12] = test system: pigweed (Amaranthus retroflexus); assay: Test A postemergence; conditions: Amaranthus retroflexus, post-emergence, 240 h, postemergence, read-out: Pigweed plant response rating
Summary of the method: as §1

[13] = test system: barnyardgrass (Echinochloa crus-galli); assay: Test A postemergence; conditions: Echinochloa crus-galli, post-emergence, 240 h, postemergence, read-out: Barnyardgrass plant response rating
Summary of the method: as §1

[14] = test system: ragweed (common ragweed, Ambrosia elatior); assay: Test A postemergence; conditions: Ambrosia artemisiifolia, post-emergence, 240 h, postemergence, read-out: Ragweed plant response rating
Summary of the method: as §1

corn (Zea mays) = assay: Test A postemergence; conditions: Zea mays, post-emergence, 240 h, postemergence, read-out: Corn plant response rating
Summary of the method: as §1

[15] = test system: giant foxtail (Setaria faberii); assay: Test A postemergence; conditions: Setaria faberi, post-emergence, 240 h, postemergence, read-out: Foxtail, Giant plant response rating
Summary of the method: as §1

[16] = 125 g ai/ha, 0 to 100 scale where 0 is no effect and 100 is complete control, approx. 10 d
[17] = 500 g ai/ha, visual injury rating about 10 d after treatment, 0 to 100 scale (0 no effect, 100 complete control)
[18] = 125 g ai/ha, visual injury on 0 to 100 scale (0 no effect, 100 complete control), approx. 10 d
[19] = 500 g ai/ha, 0 to 100 scale, 0 is no effect, 100 is complete control

C/C=C/N1C[C@@H](c2cccc(C(F)(F)F)c2)[C@H](C(=O)Nc2ccccc2F)C1=O (racemic) [Compound 1094]
40%: pest or weed control at 125 g/ha [13, 18]
20%: pest or weed control at 500 g/ha [7, 19] | plant injury at 125 g/ha [10, 18] | pest or weed control at 125 g/ha [11, 18] | pest or weed control at 500 g/ha [11, 19] | pest or weed control at 500 g/ha [12, 19]
100%: pest or weed control at 500 g/ha [6, 17]
0%: pest or weed control at 125 g/ha [1, 16] | pest or weed control at 500 g/ha [1, 17] | pest or weed control at 125 g/ha (Kochia (Kochia scoparia) [2]; [16]) | pest or weed control at 500 g/ha (Kochia (Kochia scoparia) [2]; [17]) | pest or weed control at 125 g/ha [3, 16] | pest or weed control at 500 g/ha [3, 17] | pest or weed control at 125 g/ha [4, 16] | pest or weed control at 125 g/ha [5, 16] | pest or weed control at 500 g/ha [5, 17] | pest or weed control at 125 g/ha [7, 18] | pest or weed control at 125 g/ha [8, 18] | pest or weed control at 125 g/ha (Kochia (Kochia scoparia) [9]; [18]) | pest or weed control at 500 g/ha (Kochia (Kochia scoparia) [9]; [19]) | pest or weed control at 125 g/ha [12, 18] | pest or weed control at 125 g/ha [14, 18] | pest or weed control at 500 g/ha [14, 19] | plant injury at 125 g/ha (corn (Zea mays); [18]) | plant injury at 500 g/ha (corn (Zea mays); [19])
90%: pest or weed control at 125 g/ha [6, 16]
30%: pest or weed control at 500 g/ha [8, 19] | plant injury at 500 g/ha [10, 19] | pest or weed control at 125 g/ha [15, 18]
80%: pest or weed control at 500 g/ha [4, 17] | pest or weed control at 500 g/ha [13, 19] | pest or weed control at 500 g/ha [15, 19]
